# In patent publication US20220235065A1 (Epizyme, Inc., priority 2016, published 2022):
# Structures can show the parent of a compound that is named as a salt.
# Target: T1, recombinant purified human EHMT2 913-1193 (Homo sapiens, UniProt Q96KQ7)
# T1 construct: Recombinant purified human EHMT2 913-1193 (55 μM) synthesized by Viva was used for all experiments; purchased Viva
# T1 sequence (Q96KQ7 913-1193): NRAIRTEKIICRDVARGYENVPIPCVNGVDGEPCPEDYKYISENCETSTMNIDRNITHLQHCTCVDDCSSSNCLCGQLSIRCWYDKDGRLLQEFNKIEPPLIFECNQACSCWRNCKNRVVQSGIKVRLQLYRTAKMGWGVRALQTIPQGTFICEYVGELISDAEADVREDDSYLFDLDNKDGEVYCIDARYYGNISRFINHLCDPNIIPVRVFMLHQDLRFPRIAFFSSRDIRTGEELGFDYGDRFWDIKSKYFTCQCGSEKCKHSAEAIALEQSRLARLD
# Test: EHMT2 enzyme assay on histone peptide substrate (3H-SAM Flashplate)
# Type: biochemical
# Settings: read-out: EHMT2 PEP (IC50 μM)
# Summary of the method: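 Compounds (10-point 3-fold series, top 50 μM final, 2% DMSO) preincubated 30 min with 0.031 nM EHMT2 in 20 mM Bicine pH 7.5, 1 mM TCEP; reaction started with 3H-SAM and biotinylated H3 1-15 peptide, both at Km, run 60 min at room temperature. Flashplate capture; IC50 from four-parameter fit, triplicates.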
row,IC50,SMILES
1,1 to 10 µM,CNc1cc(C)nc(Nc2ccc(OC)c(-c3cc(C4CC4)on3)c2)n1 [Compound 13]
2,1 to 10 µM,"CNc1cc(C)nc(Nc2ccc(OC)c(-n3cc(C4CC4)cn3)c2)n1 [Compound 14, 2-N-[3-(4-cyclopropyl-1H-pyrazol-1-yl)-4-methoxyphenyl]-4-N,6-dimethylpyrimidine-2,4-diamine]"
3,> 10 µM,"CNc1cc(C)nc(Nc2ccc(OC)c(-n3cccn3)c2)n1 [Compound 15, 2-N-[4-methoxy-3-(1H-pyrazol-1-yl)phenyl]-4-N,6-dimethylpyrimidine-2,4-diamine; trifluoroacetic acid]"
4,1 to 10 µM,CNc1cc(C)nc(Nc2cnc(OC)c(-n3ncc4c3CCNC4)c2)n1 [Compound 19]
5,> 10 µM,CNc1cc(C)nc(Nc2ccc(OC)c(-c3nnc4n3CCNC4)c2)n1 [Compound 21]
6,> 10 µM,"CNc1cc(C)nc(Nc2ccc(OC)c(-n3cc4c(n3)CNCC4)c2)n1 [Compound 22, 2-N-(4-methoxy-3-[2H,4H,5H,6H,7H-pyrazolo[3,4-c]pyridin-2-yl]phenyl)-4-N,6-dimethylpyrimidine-2,4-diamine hydrochloride]"
7,< 0.1 µM,"CNc1cc(C)nc(Nc2ccc(OC)c(-n3cc(CN)cn3)c2)n1 [Compound 23, 2-N-[3-[4-(aminomethyl)-1H-pyrazol-1-yl]-4-methoxyphenyl]-4-N,6-dimethylpyrimidine-2,4-diamine; trifluoroacetic acid]"
8,1 to 10 µM,CNc1cc(C)nc(Nc2ccc(OC)c(-n3nccc3CN)c2)n1 [Compound 24]
9,> 10 µM,"CNc1cc(C)nc(Nc2ccc(OC)c(-n3ncc4c3CCCC4)c2)n1 [Compound 26, 2-N-[4-methoxy-3-(4,5,6,7-tetrahydro-1H-indazol-1-yl)phenyl]-4-N,6-dimethylpyrimidine-2,4-diamine trifluoroacetic acid]"
10,0.1 to 1 µM,"CNc1nc(Nc2ccc(OC)c(-n3cc4c(n3)CCNC4)c2)nc(C)c1F [Compound 27, 5-fluoro-2-N-(4-methoxy-3-[2H,4H,5H,6H,7H-pyrazolo[4,3-c]pyridin-2-yl]phenyl)-4-N,6-dimethylpyrimidine-2,4-diamine trifluoroacetic acid]"
11,1 to 10 µM,"CNc1nc(Nc2ccc(OC)c(-n3ncc4c3CCNC4)c2)nc(C)c1F [Compound 28, 5-fluoro-2-N-(4-methoxy-3-[1H,4H,5H,6H,7H-pyrazolo[4,3-c]pyridin-1-yl]phenyl)-4-N,6-dimethylpyrimidine-2,4-diamine trifluoroacetic acid]"
12,> 10 µM,CNc1cc(C)nc(Nc2ccc(OC)c(-c3c(C)nc4n3CCNC4)c2)n1 [Compound 30]
13,> 10 µM,CNc1cc(C)nc(Nc2ccc(OC)c(-c3nnc4n3CCN(C)C4)c2)n1 [Compound 31]
14,> 10 µM,CNc1cc(C)nc(Nc2ccc(OC)c(-n3ncc4c3CCCN4)c2)n1 [Compound 32]
15,> 10 µM,"CNc1cc(C)nc(Nc2ccc(OC)c(-c3cccc4[nH]ccc34)c2)n1 [Compound 33, 2-N-[3-(1H-indol-4-yl)-4-methoxyphenyl]-4-N,6-dimethylpyrimidine-2,4-diamine hydrochloride]"
16,1 to 10 µM,"CNc1cc(C)nc(Nc2ccc(OC)c(-n3ncc4cnccc43)c2)n1 [Compound 35, 2-N-(4-methoxy-3-[1H-pyrazolo[4,3-c]pyridin-1-yl]phenyl)-4-N,6-dimethylpyrimidine-2,4-diamine; trifluoroacetic acid]"
17,> 10 µM,CNc1cc(C)nc(Nc2ccc(OC)c(-n3ncc4ccncc43)c2)n1 [Compound 36]
18,> 10 µM,"CNc1cc(C)nc(Nc2ccc(OC)c(-c3cccc4[nH]ncc34)c2)n1 [Compound 37, 2-N-[3-(1H-indazol-4-yl)-4-methoxyphenyl]-4-N,6-dimethylpyrimidine-2,4-diamine; trifluoroacetic acid]"
19,> 10 µM,CNc1cc(C)nc(Nc2ccc(OC)c(-c3nc4cnccn4n3)c2)n1 [Compound 38]
20,> 10 µM,CNc1cc(C)nc(Nc2ccc(OC)c(-c3c(C)nc4cnccn34)c2)n1 [Compound 39]
21,> 10 µM,CCc1ccc(Nc2nc(C)cc(NC)n2)cc1C(=O)Nc1cccnc1 [Compound 244]
22,> 10 µM,CNc1cc(C)nc(Nc2ccc(Cl)c(C(=O)Nc3ccnnc3)c2)n1 [Compound 245]

row,IC50,SMILES
1,1 to 10 µM,CNc1cc(C)nc(Nc2ccc(Cl)c(C(=O)Nc3nccs3)c2)n1 [Compound 246]
2,1 to 10 µM,Cc1cc(NC2CCNCC2)ncc1-c1cc2[nH]ccc2cn1 [Compound 247]
3,1 to 10 µM,CNc1cc(C)nc(Nc2ccc(Cl)c(C(=O)Nc3cnccn3)c2)n1 [Compound 251]
4,< 0.1 µM,CNc1cc(C)nc(Nc2ccc(Cl)c(-c3cc4[nH]ccc4cn3)c2)n1 [Compound 255]
5,< 0.1 µM,CNc1cc(C)nc(Nc2ccc(C)c(-c3cc4[nH]ccc4cn3)c2)n1 [Compound 256]
6,1 to 10 µM,CNc1nc2cc(-c3cc4[nH]ccc4cn3)c(C)cc2n1C [Compound 257]
7,1 to 10 µM,CNc1cc(C)nc(Nc2ccc(Cl)c(C(=O)Nc3ncccn3)c2)n1 [Compound 258]
8,> 10 µM,CNc1cc(C)nc(Nc2ccc(Cl)c(C(=O)Nc3ccncn3)c2)n1 [Compound 259]
9,1 to 10 µM,CNc1cc(C)nc(Nc2ccc(Cl)c(-c3cc4c(cn3)CC(=O)N4)c2)n1 [Compound 260]
10,< 0.1 µM,"CNCc1cnn(-c2cc(Nc3nc(C)cc(NC)n3)ccc2Cl)c1 [Compound 262, N2-(4-chloro-3-(4-((methylamino)methyl)-1H-pyrazol-1-yl)phenyl)-N4,6-dimethylpyrimidine-2,4-diamine]"
11,< 0.1 µM,CCc1ccc(Nc2nc(C)cc(NC)n2)cc1-c1cc2ccncc2[nH]1 [Compound 269]
12,1 to 10 µM,CNc1cc(C)nc(Nc2ccc(C)c(-c3[nH]c4cnccc4c3C#N)c2)n1 [Compound 271]
13,> 10 µM,CNc1cc(C)nc(Nc2ccc(C)c(-c3cc4ccccc4[nH]3)c2)n1 [Compound 274]
14,1 to 10 µM,CCNc1c[nH]c(=O)c(-c2cc(Nc3nc(C)cc(NC)n3)ccc2C)c1 [Compound 276]
15,< 0.1 µM,CNc1nc2cc(-c3cc4ccncc4[nH]3)c(C)cc2n1C [Compound 278]
16,< 0.1 µM,CNc1cc(C)nc(Nc2ccc(C)c(-c3nc4ccncc4[nH]3)c2)n1 [Compound 279]
17,> 10 µM,CNc1cc(C)nc(Nc2ccc(C)c(C(=O)Nc3cscn3)c2)n1 [Compound 280]
18,< 0.1 µM,CNc1cc(C)nc(Nc2ccc(C)c(-n3cc4cnccc4n3)c2)n1 [Compound 282]
19,< 0.1 µM,CNCc1cnn(-c2cc(Nc3nc(C)cc(NC)n3)ccc2OC)c1 [Compound 285]
20,< 0.1 µM,"CNCc1cnn(-c2cc(Nc3nc(C)cc(NC)n3)ccc2C)c1 [Compound 286, N4,6-dimethyl-N2-(4-methyl-3-(4-((methylamino)methyl)-1H-pyrazol-1-yl)phenyl)pyrimidine-2,4-diamine]"
21,1 to 10 µM,CNc1cc(C)nc(Nc2ccc(C)c(C(=O)Nc3cnccn3)c2)n1 [Compound 287]
22,1 to 10 µM,CNc1cc(C)nc(Nc2ccc(OC)c(-c3[nH]c4cnccc4c3C#N)c2)n1 [Compound 291]

row,IC50,SMILES
1,0.1 to 1 µM,CNc1cc(C)nc(Nc2ccc(OC)c(-c3cc4[nH]ccc4c(C#N)n3)c2)n1 [Compound 292]
2,0.1 to 1 µM,CNc1cc(C)nc(Nc2ccc(OC)c(-c3cc4[nH]ccc4c(CNC(C)=O)n3)c2)n1 [Compound 293]
3,< 0.1 µM,CNC1=Nc2cc(-c3cnc4cc[nH]c4c3)c(OC)cc2C12CCC2 [Compound 294]
4,1 to 10 µM,CNc1nc2cc(-c3cnc4cc[nH]c4c3)c(OC)cc2n1C [Compound 295]
5,0.1 to 1 µM,CNc1cc(C)nc(Nc2ccc(OC)c(-c3cc4[nH]ccc4c(CN)n3)c2)n1 [Compound 296]
6,> 10 µM,CNc1cc(C)nc(Nc2ccc(C)c(C(=O)Nc3cn(C)nn3)c2)n1 [Compound 299]
7,0.1 to 1 µM,CNC1=Nc2cc(-c3cc4[nH]ccc4nc3C)c(OC)cc2C12CCC2 [Compound 300]
8,> 10 µM,CNc1cc(C)nc(Nc2ccc(C)c(C(=O)Nc3cn(C)cn3)c2)n1 [Compound 302]
9,0.1 to 1 µM,CNc1nc2cc(-c3[nH]c4cnccc4c3C)c(OC)cc2n1C [Compound 304]
10,0.1 to 1 µM,COc1cc(NC2CCNC2)ccc1-c1[nH]c2cnccc2c1C (stereo not shown) [Compound 305]
11,1 to 10 µM,CNc1cc(C)nc(Nc2ccc(OC)c(-c3nccc(NC)n3)c2)n1 [Compound 306]
12,< 0.1 µM,CNCc1cnn(-c2c(F)ccc(Nc3nc(C)cc(NC)n3)c2F)c1 [Compound 307]
13,1 to 10 µM,CNC1=Nc2cc(-c3cc4[nH]ccc4c(C(N)=O)n3)c(OC)cc2C12CCC2 [Compound 308]
14,1 to 10 µM,COc1cc2c(cc1-c1cc3[nH]ccc3cn1)N=C(NCC(N)=O)C21CCC1 [Compound 309]
15,1 to 10 µM,COc1cc(NC2CCNCC2)ccc1-c1[nH]c2cnccc2c1C [Compound 310]
16,> 10 µM,CNc1cc(C)nc(Nc2cnc(C)c(-c3cc4ccncc4[nH]3)c2)n1 [Compound 311]
17,0.1 to 1 µM,CNCc1ccnc(-c2cc(Nc3nc(C)cc(NC)n3)ccc2OC)c1 [Compound 313]
18,< 0.1 µM,CNC1=Nc2cc(-n3cc(CN4CCC4)cn3)c(OC)cc2C12CCC2 [Compound 314]
19,0.1 to 1 µM,CNc1cc(C)nc(Nc2ccc(F)c(-n3cc(CN4CCC4)cn3)c2F)n1 [Compound 315]
20,< 0.1 µM,CNc1cc(C)nc(Nc2ccc(OC)c(-c3[nH]c4cnccc4c3CNC(C)=O)c2)n1 [Compound 316]
